The record followed here is patent US8835462B2, “Macrocyclic picolinamides as fungicides” (Dow AgroSciences LLC, priority 2012, dated 2014).

Common to all, as to assay type: in vivo
One experiment has as its system Alternaria solani. Put plainly: Tomato early blight (ALTESO) fungicidal activity. To be noted: 24 h, 1 Day Protectant, read-out: Disease Control ALTESO 1DP. As for the experimental part: Technical grades of materials were dissolved in acetone, which were then mixed with nine volumes of water containing 110 ppm Triton X-100. The fungicide solutions were applied onto wheat seedlings using an automated booth sprayer to run-off. All sprayed plants were allowed to air dry prior to further handling. Wheat plants (variety Yuma) were grown from seed in a greenhouse in 50% mineral soil/50% soil-less Metro mix until the first leaf was fully emerged, with 7-10 seedlings per pot. These plants were inoculated with an aqueous spore suspension of Septoria tritici either prior to or after fungicide treatments. After inoculation the plants were kept in 100% relative humidity (one day in a dark dew chamber followed by two to three days in a lighted dew chamber at 20° C.) to permit spores to germinate and infect the leaf. The plants were then transferred to a greenhouse set at 20° C. for disease to develop. When disease symptoms were fully expressed on the 1st leaves of untreated plants, infection levels were assessed on a scale of 0 to 100 percent disease severity. Percent disease control was calculated using the ratio of disease severity on treated plants relative to untreated plants. Evaluation of Fungicidal Activity: Tomato Early Blight (Alternaria Solani; Bayer Code […]) Tomato plants (variety Outdoor girl) were propagated in soil-less Metro mix, with each pot having one plant, and used when 12 to 14 days old. Test plants were inoculated with an aqueous spore suspension of Alternaria solani 24 hr after fungicide treatments. After inoculation the plants were kept in 100% relative humidity (one day in a dark dew chamber followed by two to three days in a lighted dew chamber at 20° C.) to permit spores to germinate and infect the leaf. The plants were then transferred to a growth room at 22° C. for disease to develop. Fungicide formulation, application and disease assessment on the sprayed leaves followed the procedures as described in the Example A.

In the next experiment the test system is Leptosphaeria nodorum. Nature of the experiment: Wheat glume blotch (LEPTNO) fungicidal activity. To be noted: Parastagonospora nodorum, 24 h, 1 Day Protectant, read-out: Disease Control LEPTNO 1DP. Here is the method:
Technical grades of materials were dissolved in acetone, which were then mixed with nine volumes of water containing 110 ppm Triton X-100. The fungicide solutions were applied onto wheat seedlings using an automated booth sprayer to run-off. All sprayed plants were allowed to air dry prior to further handling. Wheat plants (variety Yuma) were grown from seed in a greenhouse in 50% mineral soil/50% soil-less Metro mix until the first leaf was fully emerged, with 7-10 seedlings per pot. These plants were inoculated with an aqueous spore suspension of Septoria tritici either prior to or after fungicide treatments. After inoculation the plants were kept in 100% relative humidity (one day in a dark dew chamber followed by two to three days in a lighted dew chamber at 20° C.) to permit spores to germinate and infect the leaf. The plants were then transferred to a greenhouse set at 20° C. for disease to develop. When disease symptoms were fully expressed on the 1st leaves of untreated plants, infection levels were assessed on a scale of 0 to 100 percent disease severity. Percent disease control was calculated using the ratio of disease severity on treated plants relative to untreated plants. Evaluation of Fungicidal Activity: Wheat Glume Blotch (Leptosphaeria Nodorum; Bayer Code […]) Wheat plants (variety Yuma) were grown from seed in a greenhouse in 50% mineral soil/50% soil-less Metro mix until the first leaf was fully emerged, with 7-10 seedlings per pot. These plants were inoculated with an aqueous spore suspension of Leptosphaeria nodorum 24 hr after fungicide treatments. After inoculation the plants were kept in 100% relative humidity (one day in a dark dew chamber followed by two days in a lighted dew chamber at 20° C.) to permit spores to germinate and infect the leaf. The plants were then transferred to a greenhouse set at 20° C. for disease to develop. Fungicide formulation, application and disease assessment followed the procedures as described in the Example A.

Experiment [1] has as its system Glomerella lagenarium; Anamorph: Colletotricum lagenarium. Nature of the experiment: Cucumber anthracnose (COLLLA) fungicidal activity. As to conditions: Colletotrichum orbiculare, 24 h, 1 Day Protectant, read-out: Disease Control COLLLA 1DP. Here is the method:
Technical grades of materials were dissolved in acetone, which were then mixed with nine volumes of water containing 110 ppm Triton X-100. The fungicide solutions were applied onto wheat seedlings using an automated booth sprayer to run-off. All sprayed plants were allowed to air dry prior to further handling. Wheat plants (variety Yuma) were grown from seed in a greenhouse in 50% mineral soil/50% soil-less Metro mix until the first leaf was fully emerged, with 7-10 seedlings per pot. These plants were inoculated with an aqueous spore suspension of Septoria tritici either prior to or after fungicide treatments. After inoculation the plants were kept in 100% relative humidity (one day in a dark dew chamber followed by two to three days in a lighted dew chamber at 20° C.) to permit spores to germinate and infect the leaf. The plants were then transferred to a greenhouse set at 20° C. for disease to develop. When disease symptoms were fully expressed on the 1st leaves of untreated plants, infection levels were assessed on a scale of 0 to 100 percent disease severity. Percent disease control was calculated using the ratio of disease severity on treated plants relative to untreated plants. Evaluation of Fungicidal Activity: Cucumber Anthracnose (Glomerella Lagenarium; Anamorph: Colletotricum Lagenarium; Bayer Code COLLLA) Cucumber seedlings (variety Bush Pickle) were propagated in soil-less Metro mix, with each pot having one plant, and used in the test when 12 to 14 days old. Test plants were inoculated with an aqueous spore suspension of Colletotricum lagenarium 24 hr after fungicide treatments. After inoculation the plants were kept in a dew room at 22° C. with 100% relative humidity for 48 hr to permit spores to germinate and infect the leaf. The plants were then transferred to a growth room set at 22° C. for disease to develop. Fungicide formulation, application and disease assessment on the sprayed leaves followed the procedures as described in the Example A.

Experiment [2] concerns Magnaporthe grisea; Anamorph: Pyricularia oryzae. Put plainly: whole plant or invertebrate. As to conditions: 24 h, read-out: Disease Control PYRIOR 1DP.

As to `COc1ccnc(C(=O)N[C@H]2COC[C@H](Cc3ccccc3)[C@@H](OC)[C@H](C)OC2=O)c1OCOC(C)=O` [Compound 39], the pest or weed control at 100 ppm lay in the range of 0 to 80% with Alternaria solani, 80 to 100% in the experiment on Leptosphaeria nodorum, 80 to 100% in experiment [1] and 80 to 100% in experiment [2].

Regarding `COc1ccnc(C(=O)N[C@H]2COC[C@H](Cc3ccccc3)[C@@H](OCC(C)C)[C@H](C)OC2=O)c1OCOC(=O)C(C)C` [Compound 3], the pest or weed control at 100 ppm (with Alternaria solani; in the experiment on Leptosphaeria nodorum; in experiment [1]) was 80 to 100% each time.

Regarding `COc1ccnc(C(=O)N[C@H]2COC[C@H](Cc3ccccc3)[C@@H](OCC(C)C)[C@H](C)OC2=O)c1OC(C)=O` [Compound 9, 2-(((3S,7S,8R,9S)-7-benzyl-8-isobutoxy-9-methyl-2-oxo-1,5-dioxonan-3-yl)carbamoyl)-4-methoxypyridin-3-yl acetate], the pest or weed control at 100 ppm with Alternaria solani and with Leptosphaeria nodorum was 80 to 100% each time.

In the case of `COc1ccnc(C(=O)N[C@H]2COC[C@H](Cc3ccccc3)[C@@H](OCCC(C)OC)[C@H](C)OC2=O)c1OCOC(C)=O` (stereo partly drawn) [Compound 46], the figures for the pest or weed control at 100 ppm (in the experiment on Alternaria solani; with Leptosphaeria nodorum; in experiment [2]) were 0 to 80%, 80 to 100% and 80 to 100%, respectively.

With `COc1ccnc(C(=O)N[C@H]2COC[C@H](Cc3ccccc3)[C@@H](OC3CCCC3)[C@H](C)OC2=O)c1OCOC(C)=O` [Compound 106], the pest or weed control at 100 ppm in the experiment on Alternaria solani was 0 to 80%; in the experiment on Leptosphaeria nodorum, 80 to 100%; in experiment [1] it was 80 to 100%.

Regarding `COc1ccnc(C(=O)N[C@H]2COC[C@H](Cc3ccccc3)[C@@H](OCCC(=O)N(C)C)[C@H](C)OC2=O)c1OCOC(C)=O` [Compound 15], the pest or weed control at 100 ppm (with Alternaria solani; with Leptosphaeria nodorum; in experiment [1]; in experiment [2]) was 0 to 80% throughout.

`CCCO[C@@H]1[C@@H](Cc2ccccc2)COC[C@H](NC(=O)c2nccc(OC)c2OCOC(C)=O)C(=O)O[C@H]1C` [Compound 22]: the pest or weed control at 100 ppm (in the experiment with Alternaria solani; with Leptosphaeria nodorum; in experiment [1]; in experiment [2]) was 80 to 100% throughout.

With `CCCCCO[C@@H]1[C@@H](Cc2ccccc2)COC[C@H](NC(=O)c2nccc(OC)c2OCOC(C)=O)C(=O)O[C@H]1C` [Compound 26], the pest or weed control at 100 ppm (with Alternaria solani; in the experiment on Leptosphaeria nodorum; in experiment [1]; in experiment [2]) was 80 to 100% throughout.

Consider `COc1ccnc(C(=O)N[C@H]2COC[C@H](Cc3ccccc3)[C@@H](OCC(C)C)[C@H](C)OC2=O)c1OCOC(C)=O` [Compound 8, (2-((3S,7S,8R,9S)-7-benzyl-8-isobutoxy-9-methyl-2-oxo-1,5-dioxonan-3-ylcarbamoyl)-4-methoxypyridin-3-yloxy)methyl acetate], for which the pest or weed control at 100 ppm (in the experiment on Alternaria solani; with Leptosphaeria nodorum; in experiment [1]; in experiment [2]) was 80 to 100% each time.

On to `COc1ccnc(C(=O)N[C@H]2COC[C@H](Cc3ccccc3)[C@@H](OC3CCCC3)[C@H](C)OC2=O)c1OCOC(=O)C(C)C` [Compound 108], for which the pest or weed control at 100 ppm (with Alternaria solani; in the experiment on Leptosphaeria nodorum; in experiment [1]; in experiment [2]) was 80 to 100% each time.

In the case of `COc1ccnc(C(=O)N[C@H]2COC[C@H](Cc3ccccc3)[C@@H](OCC(C)C)[C@H](C)OC2=O)c1O` [Compound 2, N-((3S,7S,8R,9S)-7-benzyl-8-isobutoxy-9-methyl-2-oxo-1,5-dioxonan-3-yl)-3-hydroxy-4-methoxypicolinamide], the pest or weed control at 100 ppm in experiment [2] fell in the range of 80 to 100%.

As to `COc1ccnc(C(=O)N[C@H]2COC[C@H](Cc3ccccc3)[C@@H](OC(=O)c3ccccc3)[C@H](C)OC2=O)c1OCOC(C)=O` [Compound 37], the pest or weed control at 100 ppm (in the experiment on Alternaria solani; with Leptosphaeria nodorum; in experiment [1]; in experiment [2]) was 80 to 100% in each case.

With `COc1ccnc(C(=O)N[C@H]2COC[C@H](Cc3ccccc3)[C@@H](OCC(C)C)[C@H](C)OC2=O)c1OCOC(=O)C(C)(C)C` [Compound 7], the pest or weed control at 100 ppm in the experiment with Alternaria solani and in the experiment with Leptosphaeria nodorum was 80 to 100% throughout.

Turning to `COc1ccnc(C(=O)N[C@H]2COC[C@H](Cc3ccccc3)[C@@H](OCCCC(F)(F)F)[C@H](C)OC2=O)c1OCOC(C)=O` [Compound 23], the pest or weed control at 100 ppm (with Alternaria solani; in the experiment with Leptosphaeria nodorum; in experiment [1]; in experiment [2]) was 80 to 100% throughout.

As for `COc1ccnc(C(=O)N[C@H]2COC[C@H](Cc3ccccc3)[C@@H](OC(=O)C3CC3)[C@H](C)OC2=O)c1OCOC(C)=O` [Compound 38], the pest or weed control at 100 ppm (in the experiment with Alternaria solani; with Leptosphaeria nodorum; in experiment [1]; in experiment [2]) was 80 to 100% throughout.

Take `COc1ccnc(C(=O)N[C@H]2COC[C@H](Cc3ccccc3)[C@@H](OC3CCCC3)[C@H](C)OC2=O)c1OC(C)=O` [Compound 107]: the pest or weed control at 100 ppm with Alternaria solani is 0 to 80%; in the experiment with Leptosphaeria nodorum, 80 to 100%; in experiment [1], 80 to 100%; in experiment [2] it was 80 to 100%.

Take `COCCCO[C@@H]1[C@@H](Cc2ccccc2)COC[C@H](NC(=O)c2nccc(OC)c2OCOC(C)=O)C(=O)O[C@H]1C` [Compound 16]: the pest or weed control at 100 ppm (with Alternaria solani; with Leptosphaeria nodorum; in experiment [1]; in experiment [2]) was 80 to 100% throughout.

For the compound `COc1ccnc(C(=O)N[C@H]2COC[C@H](Cc3ccccc3)[C@@H](OCC(C)C)[C@H](C)OC2=O)c1OC(=O)OC(C)C` [Compound 10, 2-(((3S,7S,8R,9S)-7-benzyl-8-isobutoxy-9-methyl-2-oxo-1,5-dioxonan-3-yl)carbamoyl)-4-methoxypyridin-3-yl isopropyl carbonate], the pest or weed control at 100 ppm lay in the range of 0 to 80% in the experiment with Alternaria solani and 80 to 100% with Leptosphaeria nodorum.

For `COc1ccnc(C(=O)N[C@H]2COC[C@H](Cc3ccccc3)[C@@H](OCC(F)F)[C@H](C)OC2=O)c1OCOC(C)=O` [Compound 44], the results for the pest or weed control at 100 ppm (in the experiment on Alternaria solani; with Leptosphaeria nodorum; in experiment [2]) were 0 to 80%, 80 to 100% and 80 to 100%, respectively.
